Results published in patent publication EP0093484A2, “Antibacterial monic acid derivatives” (BEECHAM GROUP PLC, priority 1982, dated 1983).
Values after ≈ are worked out from the molar mass of the structure shown. Where two headings read alike, the source gives them in different places.

How the values were obtained:
M. suipneumoniae NB12 = assay: Anti-mycoplasmal activity, MIC in Friis broth agarose; format: cell-based; conditions: Friis broth solidified with 0.9% agarose, 6 days incubation at 37°C
Ps. aeruginosa 10662 = assay: Human bacteria, MIC by serial dilution in nutrient agar; format: cell-based; conditions: nutrient agar with 5% chocolated horse blood, 18 hours at 37°C
Strep. agalactiae SPA1 = assay: Veterinary bacteria, MIC by two fold serial dilution in agar
Description: (§1) The activity of the compounds of the Examples against various organisms important in veterinary infections was determined using two fold serial dilutions in Diagnostic Sensitivity Test Agar inoculated with 10^4 organisms.

M. dispar NCTC 10125 = assay: Anti-mycoplasmal activity, MIC in Friis broth agarose; format: cell-based; conditions: Friis broth solidified with 0.9% agarose, 6 days incubation at 37°C
P. mirabilis 889 = assay: Human bacteria, MIC by serial dilution in nutrient agar; format: cell-based; conditions: nutrient agar with 5% chocolated horse blood, 18 hours at 37°C
Past. multocida PA2 = assay: Veterinary bacteria, MIC by two fold serial dilution in agar; conditions: Pasteurella multocida, PA2, 18 h
Description: as §1

E. coli E1 = assay: as above
Description: as §1

[1] = system: Corynebacterium xerosis 9755; assay: Human bacteria, MIC by serial dilution in nutrient agar; format: cell-based; conditions: nutrient agar with 5% chocolated horse blood, 18 hours at 37°C
[2] = system: Haemophilus influenzae Q1; assay: as above; format: cell-based; conditions: nutrient agar with 5% chocolated horse blood, 18 hours at 37°C, read-out: MIC
S. dublin S7 = assay: Veterinary bacteria, MIC by two fold serial dilution in agar
Description: as §1

[3] = system: Haemophilus influenzae Wy21; assay: Human bacteria, MIC by serial dilution in nutrient agar; format: cell-based; conditions: nutrient agar with 5% chocolated horse blood, 18 hours at 37°C
[4] = system: M. suipneumoniae NCTC 10110; assay: Anti-mycoplasmal activity, MIC in Friis broth agarose; format: cell-based; conditions: Friis broth solidified with 0.9% agarose, 6 days incubation at 37°C
M. suipneumoniae TAM 6N = assay: as above; format: cell-based; conditions: Friis broth solidified with 0.9% agarose, 6 days incubation at 37°C
E. coli NCTC 10418 = assay: Human bacteria, MIC by serial dilution in nutrient agar; format: cell-based; conditions: E. coli NCTC 10418 (human panel), nutrient agar with 5% chocolated horse blood, 18 hours at 37°C
M. hyorhinis ATCC 23234 = assay: Anti-mycoplasmal activity, MIC in Friis broth agarose; format: cell-based; conditions: Friis broth solidified with 0.9% agarose, 6 days incubation at 37°C
M. suipneumoniae JF 435 = assay: as above; format: cell-based; conditions: Friis broth solidified with 0.9% agarose, 6 days incubation at 37°C
Strep. dysgalactiae SPD1 = assay: Veterinary bacteria, MIC by two fold serial dilution in agar
Description: as §1

Staph. aureus W2827 = assay: Human bacteria, MIC by serial dilution in nutrient agar; format: cell-based; conditions: nutrient agar with 5% chocolated horse blood, 18 hours at 37°C
Bacillus subtilis 6633 = assay: as above; format: cell-based; conditions: nutrient agar with 5% chocolated horse blood, 18 hours at 37°C
S. typhimurium S18 = assay: Veterinary bacteria, MIC by two fold serial dilution in agar
Description: as §1

Staph. aureus Russell = assay: Human bacteria, MIC by serial dilution in nutrient agar; format: cell-based; conditions: nutrient agar with 5% chocolated horse blood, 18 hours at 37°C
M. suipneumoniae HK(2) = assay: Anti-mycoplasmal activity, MIC in Friis broth agarose; format: cell-based; conditions: Friis broth solidified with 0.9% agarose, 6 days incubation at 37°C
Bord. bronchiseptica B08 = assay: Veterinary bacteria, MIC by two fold serial dilution in agar
Description: as §1

M. gallisepticum S6 = assay: Anti-mycoplasmal activity, MIC in Friis broth agarose; format: cell-based; conditions: Friis broth solidified with 0.9% agarose, 6 days incubation at 37°C
E. coli ESS = assay: Human bacteria, MIC by serial dilution in nutrient agar; format: cell-based; conditions: nutrient agar with 5% chocolated horse blood, 18 hours at 37°C
Strep. faecalis I = assay: as above; format: cell-based; conditions: nutrient agar with 5% chocolated horse blood, 18 hours at 37°C
[5] = system: M. suipneumoniae ATCC 25095; assay: Anti-mycoplasmal activity, MIC in Friis broth agarose; format: cell-based; conditions: Friis broth solidified with 0.9% agarose, 6 days incubation at 37°C
Sarcina lutea 8340 = assay: Human bacteria, MIC by serial dilution in nutrient agar; format: cell-based; conditions: Micrococcus luteus, nutrient agar with 5% chocolated horse blood, 18 hours at 37°C, read-out: MIC
Strep. agalactiae 2788-B = assay: as above; format: cell-based; conditions: nutrient agar with 5% chocolated horse blood, 18 hours at 37°C
[6] = system: Staph. aureus 152 (pen. sens.); assay: Veterinary bacteria, MIC by two fold serial dilution in agar
Description: as §1

Staph. aureus Oxford [7] = assay: as above
Description: as §1

M. suipneumoniae MS16 = assay: Anti-mycoplasmal activity, MIC in Friis broth agarose; format: cell-based; conditions: Friis broth solidified with 0.9% agarose, 6 days incubation at 37°C
[8] = system: Strep. suis (group D) SPS11; assay: Veterinary bacteria, MIC by two fold serial dilution in agar
Description: as §1

M. bovis NCTC 10131 = assay: microbe, parasite or virus in culture; format: cell-based
Staph. aureus Oxford [9] = assay: Human bacteria, MIC by serial dilution in nutrient agar; format: cell-based; conditions: Staph. aureus Oxford (human panel), nutrient agar with 5% chocolated horse blood, 18 hours at 37°C
[10] = system: Erysipelothrix rhusiopathiae NCTC 8163; assay: Veterinary bacteria, MIC by two fold serial dilution in agar
Description: as §1

[11] = system: M. suipneumoniae J2206/183b; assay: Anti-mycoplasmal activity, MIC in Friis broth agarose; format: cell-based; conditions: Friis broth solidified with 0.9% agarose, 6 days incubation at 37°C
K. aerogenes A = assay: Human bacteria, MIC by serial dilution in nutrient agar; format: cell-based; conditions: nutrient agar with 5% chocolated horse blood, 18 hours at 37°C
[12] = system: Strep. pyogenes R80/421-A; assay: as above; format: cell-based; conditions: nutrient agar with 5% chocolated horse blood, 18 hours at 37°C
Strep. spp. 64/848-C = assay: as above; format: cell-based; conditions: nutrient agar with 5% chocolated horse blood, 18 hours at 37°C
[13] = Mesomycoplasma hyopneumoniae, 144 h, read-out: MIC
[14] = Staphylococcus aureus, read-out: MIC

CC(=CC(=O)OCc1cccc(S(C)(=O)=O)c1)CC1OCC(CC2OC2C(C)C(C)O)C(O)C1O (stereo not drawn) [Example 7, m-Methylsulfonylbenzyl monate A]
MIC (M. suipneumoniae NB12; [13]): 0.5 µg/mL (≈ 0.975 µM) | MIC (Ps. aeruginosa 10662; Pseudomonas aeruginosa, read-out: MIC): > 100 µg/mL | MIC (Strep. agalactiae SPA1; Streptococcus agalactiae, SPA1, 18 h): 2.5 µg/mL (≈ 4.88 µM) | MIC (M. dispar NCTC 10125; 144 h, read-out: MIC): 0.25 µg/mL (≈ 0.488 µM) | MIC (P. mirabilis 889; Proteus mirabilis, read-out: MIC): > 100 µg/mL | MIC (Past. multocida PA2): 1.25 µg/mL (≈ 2.44 µM) | MIC (E. coli E1; Escherichia coli, E1, 18 h): > 80 µg/mL | MIC ([1]; read-out: MIC): > 100 µg/mL | MIC [2]: 0.5 µg/mL (≈ 0.975 µM) | MIC (S. dublin S7; Salmonella enterica, S7, 18 h): > 80 µg/mL | MIC ([3]; read-out: MIC): 0.5 µg/mL (≈ 0.975 µM) | MIC ([4]; Mesomycoplasma hyopneumoniae, NCTC10110, 144 h, read-out: MIC): 1 µg/mL (≈ 1.95 µM) | MIC (M. suipneumoniae TAM 6N; Mesomycoplasma hyopneumoniae, TAM6N, 144 h, read-out: MIC): 1 µg/mL (≈ 1.95 µM) | MIC (E. coli NCTC 10418; Escherichia coli, NCTC10418, read-out: MIC): > 100 µg/mL | MIC (M. hyorhinis ATCC 23234; Mesomycoplasma hyorhinis, ATCC23234, 144 h, read-out: MIC): 0.5 µg/mL (≈ 0.975 µM) | MIC (M. suipneumoniae JF 435; Mesomycoplasma hyopneumoniae, JF435, 144 h, read-out: MIC): 1 µg/mL (≈ 1.95 µM) | MIC (Strep. dysgalactiae SPD1; Streptococcus dysgalactiae, SPD1, 18 h): 1.25 µg/mL (≈ 2.44 µM) | MIC (Staph. aureus W2827; [14]): 5 µg/mL (≈ 9.75 µM) | MIC (Bacillus subtilis 6633; read-out: MIC): 2.5 µg/mL (≈ 4.88 µM) | MIC (S. typhimurium S18; Salmonella enterica, TYPHIMURIUM, 18 h): > 80 µg/mL | MIC (Staph. aureus Russell; [14]): 5 µg/mL (≈ 9.75 µM) | MIC (M. suipneumoniae HK(2); [13]): 1 µg/mL (≈ 1.95 µM) | MIC (Bord. bronchiseptica B08; Bordetella bronchiseptica, B08, 18 h): > 80 µg/mL | MIC (M. gallisepticum S6; Mycoplasmoides gallisepticum, 144 h, read-out: MIC): 5 µg/mL (≈ 9.75 µM) | MIC (E. coli ESS; Escherichia coli, read-out: MIC): 2.5 µg/mL (≈ 4.88 µM) | MIC (Strep. faecalis I; Enterococcus faecalis, read-out: MIC): > 100 µg/mL | MIC ([5]; Mesomycoplasma hyopneumoniae, ATCC25095, 144 h, read-out: MIC): 0.5 µg/mL (≈ 0.975 µM) | MIC (Sarcina lutea 8340): > 100 µg/mL | MIC (Strep. agalactiae 2788-B; Streptococcus agalactiae, read-out: MIC): 5 µg/mL (≈ 9.75 µM) | MIC ([6]; Staphylococcus aureus, 18 h): 2.5 µg/mL (≈ 4.88 µM) | MIC (Staph. aureus Oxford [7]; Staphylococcus aureus, 18 h): 2.5 µg/mL (≈ 4.88 µM) | MIC (M. suipneumoniae MS16; [13]): 0.5 µg/mL (≈ 0.975 µM) | MIC ([8]; Streptococcus suis, 18 h): 20 µg/mL (≈ 39 µM) | MIC (M. bovis NCTC 10131; NCTC10131, 144 h): 0.025 µg/mL (≈ 0.0488 µM) | MIC (Staph. aureus Oxford [9]; [14]): 2.5 µg/mL (≈ 4.88 µM) | MIC ([10]; Erysipelothrix rhusiopathiae, NCTC8163, 18 h): > 80 µg/mL | MIC [11, 13]: 1 µg/mL (≈ 1.95 µM) | MIC (K. aerogenes A; Klebsiella aerogenes, read-out: MIC): > 100 µg/mL

1-(p-Methylsulfinylphenyl)ethyl monate A [Example 8]
MIC (M. suipneumoniae NB12): 2.5 µg/mL | MIC (Ps. aeruginosa 10662): >128 µg/mL | MIC (Strep. agalactiae SPA1; Strep. agalactiae SPA1, Diagnostic Sensitivity Test Agar, 18 hours at 37°C): >80 µg/mL | MIC (M. dispar NCTC 10125): 0.5 µg/mL | MIC (P. mirabilis 889): >128 µg/mL | MIC (E. coli E1; E. coli E1, Diagnostic Sensitivity Test Agar, 18 hours at 37°C): >80 µg/mL | MIC [1]: >128 µg/mL | MIC (S. dublin S7; S. dublin S7, Diagnostic Sensitivity Test Agar, 18 hours at 37°C): >80 µg/mL | MIC [3]: 1.0 µg/mL | MIC [4]: 2.5 µg/mL | MIC (M. suipneumoniae TAM 6N): 2.5 µg/mL | MIC (E. coli NCTC 10418): >128 µg/mL | MIC (M. hyorhinis ATCC 23234): 1.0 µg/mL | MIC [12]: 2.0 µg/mL | MIC (M. suipneumoniae JF 435): 2.5 µg/mL | MIC (Strep. dysgalactiae SPD1; Strep. dysgalactiae SPD1, Diagnostic Sensitivity Test Agar, 18 hours at 37°C): 2.5 µg/mL | MIC (Staph. aureus W2827): 32 µg/mL | MIC (Bacillus subtilis 6633): 4.0 µg/mL | MIC (S. typhimurium S18; S. typhimurium S18, Diagnostic Sensitivity Test Agar, 18 hours at 37°C): >80 µg/mL | MIC (Staph. aureus Russell): 32 µg/mL | MIC (M. suipneumoniae HK(2)): 2.5 µg/mL | MIC (Bord. bronchiseptica B08; Bord. bronchiseptica B08, Diagnostic Sensitivity Test Agar, 18 hours at 37°C): >80 µg/mL | MIC (M. gallisepticum S6): 10 µg/mL | MIC (E. coli ESS): 4.0 µg/mL | MIC (Strep. faecalis I): >128 µg/mL | MIC [5]: 2.5 µg/mL | MIC (Strep. spp. 64/848-C): 4.0 µg/mL | MIC (Strep. agalactiae 2788-B): 8.0 µg/mL | MIC ([6]; Staph. aureus 152 (pen. sens.), Diagnostic Sensitivity Test Agar, 18 hours at 37°C): 5.0 µg/mL | MIC (Staph. aureus Oxford [7]; Staph. aureus Oxford (veterinary panel), Diagnostic Sensitivity Test Agar, 18 hours at 37°C): 20 µg/mL | MIC (M. suipneumoniae MS16): 1.0 µg/mL | MIC ([8]; Strep. suis (group D) SPS11, Diagnostic Sensitivity Test Agar, 18 hours at 37°C): 80 µg/mL | MIC (M. bovis NCTC 10131; M. bovis NCTC 10131, Friis broth solidified with 0.9% agarose, 6 days incubation at 37°C): .025 µg/mL | MIC (Staph. aureus Oxford [9]): 16 µg/mL | MIC ([10]; Erysipelothrix rhusiopathiae NCTC 8163, Diagnostic Sensitivity Test Agar, 18 hours at 37°C): >80 µg/mL | MIC [11]: 2.5 µg/mL | MIC (K. aerogenes A): >128 µg/mL
